Laboratory results: patent publication US8501977B2, “Platinum complex and pharmaceutical composition containing the same” (Unitech Co., Ltd., priority 2008, dated 2013)

Columns and labels:
Type in all cases: cell-based
[1] = test system: U937 (human lymphoma cell); assay: MTS cell proliferation test, U937 (Embodiment 8)
Experimental: (§1) Respectively, the S medicine test solution was prepared by dissolving the ((S,S,S) cis,cis-spiro[4,4]nonane-1,6-diamine)oxalatoplatinum(II) complex (compound 2; hereinafter, it is described as S medicine) into the dimethylsulfoxide (DMSO) with the concentration of 10 mg/ml and the R medicine test solution was prepared by dissolving the ((R,R,R)cis,cis-spiro[4,4]nonane-1,6-diamine) oxalatoplatinum(II) complex (compound 3; hereinafter, it is described as R medicine) into the dimethylsulfoxide (DMSO) with the concentration of 10 mg/ml.
(§2) The test was performed by using A549 (human lung cancer cell), LU65A (human lung cancer cell), RERF-LC-MA (human lung cancer cell), LU99 (human lung cancer cell), H460 (human lung cancer cell), HCT116 (human colon cancer cell), HT-29 (human colon cancer cell), MKN-45 (human gastric cancer cell), MKN-1 (human gastric cancer cell), U937 (human lymphoma cell), KP-1N (human pancreas cancer cell) and B2452 (human mesotheliama cell) as the cancer cell.
(§3) These cells were suspended in the each culture medium that the serum of 10% was added, and were dispensed in 96-well plate. And then, these were cultured in 5% CO2 at 37 degrees centigrade during a night. Next day, the S medicine test solution and the R medicine test solution were prepared in the culture medium to the various concentrations (5, 10, 20 μg/ml), and were dispensed into the plates that the cells were set preliminarily. And further, these were cultured in 5% CO2 at 37 degrees centigrade for three days.
(§4) The cell proliferation after the medicine addition was measured on the 3rd day from the 1st day after the medicine addition by the MTS method (kit for cell proliferation test manufactured by Promega Company).
(§5) The inhibition rate (%) of the cell proliferation was obtained from the measured MTS value by the following formula. Inhibition rate(%)=(1-MTS value of medicine addition group/MTS value of medicine non-addition group)×100
(§6) Because the value which was obtained by the above-mentioned formula represents the inhibition rate of the cell proliferation, the higher the numerical value is, the higher the medicine effect is. It is desired that the one whose value is 50% or more has the medicine effect.

[2] = test system: MKN-1 (human gastric cancer cell); assay: MTS cell proliferation test, MKN-1 (Embodiment 8)
Experimental: as §1, §2, §3, §4, §5, §6

[3] = test system: RERF-LC-MA (human lung cancer cell); assay: MTS cell proliferation test, RERF-LC-MA (Embodiment 8)
Experimental: as §1, §2, §3, §4, §5, §6

[4] = test system: H2452 cell (human mesothelicana cell); assay: MTS cell proliferation test, H2452 (Embodiment 8)
Experimental: as §1, §2, §3, §4, §5, §6

[5] = test system: U937 (human lymphoma cell); assay: MTS cell proliferation test, U937 (Embodiment 7)
Experimental: The test solution was prepared by dissolving the (compound 1) into the dimethylsulfoxide ([…]) with the concentration of 8 mg/ml.
The test was performed by using the U937 (human lymphoma cell) as the cancer cell and using the HEK293 (human fetus kidney cell) as the normal cell.
These cells were suspended in the each culture medium that the serum of 10% was added, and were dispensed in 96-well plate. And then, these were cultured in 5% CO2 at 37 degrees centigrade during a night. Next day, the test solution was prepared in the culture medium to the various concentrations (0, 4, 8, 16 μg/ml), and was dispensed into the plate that the cells were set preliminarily. And further, these were cultured in 5% CO2 at 37 degrees centigrade for three days.
The cell proliferation after the medicine addition was measured on the 3rd day from the 1st day after the medicine addition by the […] (Kit for cell proliferation test manufactured by Promega Company).
as §5
Because the value which was obtained by the above-mentioned formula represents the inhibition rate of the cell proliferation, the higher the numerionl value is, the higher the medicine effect is. It is deemed that the one whose value is 50% or more has the medicine effect.

[6] = test system: HT-29 (human colon cancer cell); assay: MTS cell proliferation test, HT-29 (Embodiment 8)
Experimental: as §1, §2, §3, §4, §5, §6

[7] = test system: H460 (human lung cancer cell); assay: MTS cell proliferation test, H460 (Embodiment 8)
Experimental: as §1, §2, §3, §4, §5, §6

[8] = test system: LU99 (human lung cancer cell); assay: MTS cell proliferation test, LU99 (Embodiment 8)
Experimental: as §1, §2, §3, §4, §5, §6

[9] = test system: MKN-45 (human gastric cancer cell); assay: MTS cell proliferation test, MKN-45 (Embodiment 8)
Experimental: as §1, §2, §3, §4, §5, §6

[10] = test system: A549 (human lung cancer cell); assay: MTS cell proliferation test, A549 (Embodiment 8)
Experimental: as §1, §2, §3, §4, §5, §6

[11] = test system: HCT116 (human colon cancer cell); assay: MTS cell proliferation test, HCT116 (Embodiment 8)
Experimental: as §1, §2, §3, §4, §5, §6

[12] = test system: LU65A (human lung cancer cell); assay: MTS cell proliferation test, LU65A (Embodiment 8)
Experimental: as §1, §2, §3, §4, §5, §6

[13] = test system: KP-1N (human pancreas cancer cell); assay: MTS cell proliferation test, KP-1N (Embodiment 8)
Experimental: as §1, §2, §3, §4, §5, §6

`O=C1[O][Pt]2([NH][C@@H]3CCCC[C@H]3[NH]2)[O]C1=O` [oxaliplatin, reference compound] was tested, and the “Inhibition rate of cell proliferation after 3 days from medicine addition (%)” value ([1]; U937, 10 μg/ml) was “⊚ (⊚: 76~100%)”, the “Inhibition rate of cell proliferation after 3 days from medicine addition (%)” value ([1]; U937, 20 μg/ml) was “⊚ (⊚: 76~100%)” and the “Inhibition rate of cell proliferation after 3 days from medicine addition (%)” value ([2]; MKN-1, 10 μg/ml) was “◯ (◯: 51~75%)”. For the same compound, the “Inhibition rate of cell proliferation after 3 days from medicine addition (%)” value ([2]; MKN-1, 20 μg/ml) was “⊚ (⊚: 76~100%)”, the “Inhibition rate of cell proliferation after 3 days from medicine addition (%)” value ([3]; 10 μg/ml) was “X (X: 0~25%)” and the “Inhibition rate of cell proliferation after 3 days from medicine addition (%)” value ([3]; 20 μg/ml) was “X (X: 0~25%)”. The “Inhibition rate of cell proliferation after 3 days from medicine addition (%)” value ([4]; H2452, 10 μg/ml) was “Δ (Δ: 26~50%)”, the “Inhibition rate of cell proliferation after 3 days from medicine addition (%)” value ([4]; H2452, 20 μg/ml) was “Δ (Δ: 26~50%)” and the “Inhibition rate of cell proliferation for 1st to 3rd day from medicine addition (%)” value ([5]; U937, 4 μg/ml, 1st day) was −5%. The “Inhibition rate of cell proliferation for 1st to 3rd day from medicine addition (%)” value ([5]; U937, 4 μg/ml, 2nd day) was −26%, the “Inhibition rate of cell proliferation for 1st to 3rd day from medicine addition (%)” value ([5]; U937, 4 μg/ml, 3rd day) was 12% and the “Inhibition rate of cell proliferation for 1st to 3rd day from medicine addition (%)” value ([5]; U937, 8 μg/ml, 1st day) was −1%. The “Inhibition rate of cell proliferation for 1st to 3rd day from medicine addition (%)” value ([5]; U937, 8 μg/ml, 2nd day) was −5%, the “Inhibition rate of cell proliferation for 1st to 3rd day from medicine addition (%)” value ([5]; U937, 8 μg/ml, 3rd day) was 37% and the “Inhibition rate of cell proliferation for 1st to 3rd day from medicine addition (%)” value ([5]; U937, 16 μg/ml, 1st day) was 0%. The “Inhibition rate of cell proliferation for 1st to 3rd day from medicine addition (%)” value ([5]; U937, 16 μg/ml, 2nd day) was 30%, the “Inhibition rate of cell proliferation for 1st to 3rd day from medicine addition (%)” value ([5]; U937, 16 μg/ml, 3rd day) was 73% and the “medicine effect in the cancer cell (U937)” value ([5]; U937, summary of Table 1 in words) was “medicine effect was also recognized”. The “Inhibition rate of cell proliferation after 3 days from medicine addition (%)” value ([6]; HT-29, 10 μg/ml) was “Δ (Δ: 26~50%)”, the “Inhibition rate of cell proliferation after 3 days from medicine addition (%)” value ([6]; HT-29, 20 μg/ml) was “Δ (Δ: 26~50%)” and the “Inhibition rate of cell proliferation after 3 days from medicine addition (%)” value ([7]; H460, 10 μg/ml) was “Δ (Δ: 26~50%)”. The “Inhibition rate of cell proliferation after 3 days from medicine addition (%)” value ([7]; H460, 20 μg/ml) was “Δ (Δ: 26~50%)”, the “Inhibition rate of cell proliferation after 3 days from medicine addition (%)” value ([8]; LU99, 10 μg/ml) was “◯ (◯: 51~75%)” and the “Inhibition rate of cell proliferation after 3 days from medicine addition (%)” value ([8]; LU99, 20 μg/ml) was “◯ (◯: 51~75%)”. For the same compound, the “Inhibition rate of cell proliferation after 3 days from medicine addition (%)” value ([9]; MKN-45, 10 μg/ml) was “⊚ (⊚: 76~100%)”, the “Inhibition rate of cell proliferation after 3 days from medicine addition (%)” value ([9]; MKN-45, 20 μg/ml) was “⊚ (⊚: 76~100%)” and the “Inhibition rate of cell proliferation after 3 days from medicine addition (%)” value ([10]; A549, 10 μg/ml) was “X (X: 0~25%)”. The “Inhibition rate of cell proliferation after 3 days from medicine addition (%)” value ([10]; A549, 20 μg/ml) was “Δ (Δ: 26~50%)”, the “Inhibition rate of cell proliferation after 3 days from medicine addition (%)” value ([11]; HCT116, 10 μg/ml) was “◯ (◯: 51~75%)” and the “Inhibition rate of cell proliferation after 3 days from medicine addition (%)” value ([11]; HCT116, 20 μg/ml) was “◯ (◯: 51~75%)”. The “Inhibition rate of cell proliferation after 3 days from medicine addition (%)” value ([12]; 10 μg/ml) was “Δ (Δ: 26~50%)”, the “Inhibition rate of cell proliferation after 3 days from medicine addition (%)” value ([12]; 20 μg/ml) was “◯ (◯: 51~75%)” and the “Inhibition rate of cell proliferation after 3 days from medicine addition (%)” value ([13]; 10 μg/ml) was “Δ (Δ: 26~50%)”. For the same compound, the “Inhibition rate of cell proliferation after 3 days from medicine addition (%)” value ([13]; 20 μg/ml) was “◯ (◯: 51~75%)”.
